Experimental data reported in patent US11707442B2, “Antibacterial and antifungal compounds” (The General Hospital Corporation, priority 2015, dated 2023).
In brackets after ≈: the same amount, converted by molar mass. Read-outs that look alike come from different tables or passages of the source.

Assays:
MRSA strain MW2 = assay: Checkerboard assay (combination); assay type: cell-based, Staphylococcus aureus; conditions: MRSA MW2; result in words
Procedure: Checkerboard assay (e.g., antibiotic synergy test): The antimicrobial or antifungal activity of a combination of a compound of present application with other agents was determined through a checkerboard assay. The checkerboard method for determining synergy of synthetic retinoids with conventional antibiotics can be conducted, for example, as previously described (See, e.g., Rajamuthiah, R. et al. A defensin from the model beetle Tribolium castaneum acts synergistically with telavancin and daptomycin against multidrug resistant Staphylococcus aureus. PLoS ONE 10, e0128576 (2015)) The compounds whose combinations were being tested were arrayed in serial concentrations, vertically for one compound and horizontally for the other compound in the same 96 well microplate. 2-fold serial dilutions of each retinoid were combined with 2-fold serial dilutions of each conventional antibiotic, which created an 8×8 matrix in a 96-well microtiter plate. The rest of the procedure involving addition of pathogen and measurement of growth was carried out as described for measurement of MIC.
The Fractional Inhibitory Concentration (FIC) index for two compounds, A and B, is defined by the following equation: FIC=((A/MIC^A)+(B/MIC^B)). MIC^A and NIC^B are MICs of compound A or B respectively. (A) is the lowest concentration of compound A in combination with compound B that inhibits growth of a pathogen and (B) is the lowest concentration of compound B that inhibits growth of a pathogen.
Optical densities at 600 nm were measured after 18 h of incubation at 37° C. The results represent three independent experiments.

A. baumannii = assay: MIC, broth microdilution; assay type: cell-based, Acinetobacter baumannii; conditions: Acinetobacter baumannii, ATCC17978; A. baumannii ATCC 17978; read-out: Minimum inhibitory concentration
Outline: (§1)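 MIC by CLSI broth microdilution (M07-A8) in MH broth; E. aerogenes, K. pneumoniae and A. baumannii pre-grown in LB, E. faecium in BHI, at 37° C. Inoculum at initial OD600 0.03, incubated 18 hrs at 35° C., growth read as absorbance at 595 nm.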

[1] = tested on: S. aureus persister cells (stationary phase); assay: Persister killing assay; assay type: cell-based, Staphylococcus aureus
Procedure: Persister killing assay. […] Persister cells of these 13 S. aureus strains were developed by growing cultures overnight to stationary phase at 37° C. at 225 rpm. The overnight cultures were washed three times with PBS and diluted to ˜10^7 CFU/ml with the same buffer, which is the same concentration as used in the killing kinetics assay described herein. 1 ml of the persister suspension containing appropriate concentrations of antibiotics was added to the wells of a 2 ml deep well assay block (Corning Costar 3960) and incubated at 37° C., with shaking at 225 rpm. At specific times, 50 μl samples were removed, serially diluted and spot-plated on TSA plates to enumerate the number of live cells. These experiments were conducted in triplicate.

K. pneumonia WGLW2 = assay: MIC, broth microdilution; assay type: cell-based, Klebsiella pneumoniae; conditions: Klebsiella pneumoniae; K. pneumonia WGLW2; read-out: Minimum inhibitory concentration
Outline: as §1

S. aureus = assay: Minimal inhibitory concentration (MIC), broth microdilution; assay type: cell-based, Staphylococcus aureus; conditions: Staphylococcus aureus
Outline: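 MIC values against methicillin-resistant Staphylococcus aureus were determined by standard broth microdilution following Clinical and Laboratory Standards Institute guidance (CLSI document M07-A8). Each well held 100 μl of test compound plus bacterial cells in MH broth, with the starting OD600 set to 0.03. Plates were incubated 18 hrs at 35° C. and absorbance was then read at 595 nm.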

O=C(O)c1ccc2cc(-c3ccc(O)c(C45CC6CC(CC(C6)C4)C5)c3)ccc2c1 [CD437, 6-(4-hydroxy-3-tricyclo[3.3.1.13,7]dec-1-ylphenyl)-2-naphthalenecarboxylic acid]
interaction with defensin 1 (MRSA strain MW2): synergism | interaction with gentamicin (MRSA strain MW2): significant synergistic antimicrobial activity | MIC (A. baumannii): > 64 µg/mL | viability of MW2 persister cells, single agent ([1]; 4 μg/ml CD437 or CD1530 or 10 μg/ml gentamicin alone): did not significantly affect | time to complete eradication of MW2 persisters, combination ([1]; 4 μg/ml retinoid plus 10 μg/ml gentamicin): ≤ 3 h | eradication of persisters formed by S. aureus strain VRS1 and 11 clinical S. aureus strains ([1]; 10×MIC, 4 h, result in words): annihilated | bactericidal concentration against MRSA persisters ([1]; MRSA MW2 persisters): 8 µg/mL | MIC (K. pneumonia WGLW2): > 64 µg/mL | MIC (S. aureus; MRSA, 28 clinical MRSA isolates, 28/28 isolates, read-out: MIC): ≤ 2 µg/mL | MIC (S. aureus; S. aureus BF1, read-out: Minimum inhibitory concentration): 2 µg/mL (≈ 5.02 µM) | MIC (S. aureus; S. aureus BF2, read-out: Minimum inhibitory concentration): 1 µg/mL (≈ 2.51 µM) | MIC (S. aureus; S. aureus BF3, read-out: Minimum inhibitory concentration): 1 µg/mL (≈ 2.51 µM) | MIC (S. aureus; S. aureus BF4, read-out: Minimum inhibitory concentration): 2 µg/mL (≈ 5.02 µM) | MIC (S. aureus; S. aureus BF5, read-out: Minimum inhibitory concentration): 1 µg/mL (≈ 2.51 µM) | MIC (S. aureus; S. aureus BF6, read-out: Minimum inhibitory concentration): 1 µg/mL (≈ 2.51 µM) | MIC (S. aureus; S. aureus BF7, read-out: Minimum inhibitory concentration): 1 µg/mL (≈ 2.51 µM) | MIC (S. aureus; S. aureus BF8, read-out: Minimum inhibitory concentration): 1 µg/mL (≈ 2.51 µM) | MIC (S. aureus; S. aureus BF9, read-out: Minimum inhibitory concentration): 1 µg/mL (≈ 2.51 µM) | MIC (S. aureus; S. aureus BF10, read-out: Minimum inhibitory concentration): 1 µg/mL (≈ 2.51 µM) | MIC (S. aureus; S. aureus BF11, read-out: Minimum inhibitory concentration): 1 µg/mL (≈ 2.51 µM) | MIC (S. aureus; S. aureus JE2 (wild-type), read-out: MIC): 1.5 µg/mL (≈ 3.76 µM) | MIC (S. aureus; S. aureus MW2, read-out: Minimum inhibitory concentration): 1 µg/mL (≈ 2.51 µM) | MIC (S. aureus; S. aureus NE896 (JE2 yjbH::ϕNΣ)): 2 µg/mL (≈ 5.02 µM) | MIC (S. aureus; S. aureus NE1645 (JE2 manA::ϕNΣ)): 3 µg/mL (≈ 7.53 µM) | MIC (S. aureus; S. aureus NE1756 (JE2 graS::ϕNΣ)): 2 µg/mL (≈ 5.02 µM) | MIC (S. aureus; S. aureus VRS1, read-out: Minimum inhibitory concentration): 1 µg/mL (≈ 2.51 µM) | MIC (S. aureus; methicillin resistant S. aureus (MRSA) strain MW2, read-out: MIC): 1 µg/mL (≈ 2.51 µM)
